{"source": "patent US7115753B2", "about": "“Triaryl cation antibiotics from environmental DNA” (Wisconsin Alumni Research Foundation, priority 2000, dated 2006)", "key": {"[1]": {"system": "Escherichia coli HS997", "assay": "Zone of inhibition assay", "type": "cell-based", "conditions": "10 μl drop of 250 μg/ml in DMSO"}, "[2]": {"system": "B. cereus var. mycoides 1003", "type": "cell-based, Bacillus cereus var. mycoides", "conditions": "10 μl drop of 250 μg/ml in DMSO"}, "[3]": {"system": "Pythium ultimum 1033", "assay": "Zone of inhibition assay (fungal plug on plate)", "type": "cell-based", "parameters": "key: (+) 2 to 13 mm zone; (+/−) 1 mm zone; (−) no zone of inhibition", "conditions": "DMSO-dissolved compound on plate, 23° C., 7 days", "procedure": "(§1) Pythium ultimum (1033) and Fusarium solani f sp. glycine (90.1) were grown on ¼- strength potato dextrose agar (29) at 23° C. Plugs were cut from the fungal lawn using a #5 cork borer and placed onto the center of a fresh plate containing the DMSO-dissolved compounds. The plates were incubated 7 days, or until the organism covered the plate, at 23° C., in the dark."}, "[4]": {"system": "Fusarium solani (f. sp. glycine) 90.1", "assay": "Zone of inhibition assay (fungal plug on plate)", "type": "cell-based", "parameters": "key: (+) 2 to 13 mm zone; (+/−) 1 mm zone; (−) no zone of inhibition", "conditions": "DMSO-dissolved compound on plate, 23° C., 7 days", "procedure": "as §1"}, "[5]": {"system": "Erwinia herbicola", "assay": "Minimum inhibitory concentration (MIC) in broth culture", "type": "cell-based", "conditions": "synthetic compound", "procedure": "(§2) Overnight cultures were prepared as for the plate inhibition assays. Culture optical densities (O.D.) were normalized to 0.15 (150 μl path length) by performing 1:1 serial dilutions (150 μl transfer into 150 μl diluent) in a 96 well microtiter plate. Inoculum cell concentrations (colony forming units/ml) were subsequently determined by performing 1:5 serial dilution series (50 μl transfer into 200 μl diluent) in a second microtiter plate. Three dilutions were plated ([…]) by mixing 50 μl of a given dilution into 20 ml of cooled BHI/YE medium and quickly pouring into a petri plate. Test compounds, both natural and synthetic, were dissolved in DMSO (2.0 mg/ml) and diluted into BHI/YE medium to a concentration of 106 μg/ml (5.35% v/v DMSO). Samples of each of the test compounds (150 μl each) were added to 3 separate wells, each containing 150 μl of BHI/YE medium (no DMSO). […] Three plates were prepared for each test organism (n=3 […]=9 per compound, per organism). Additional wells were included in duplicate on each plate for color subtraction, +/-DMSO, and minus compound controls (n=2 […]=6 per control, per organism). Ten μl of normalized inoculum was added per well. Absorbance at 590 nm was read using a […] Victor® Microtiter plate reader; double circular mixing was performed for 10 seconds prior to reading at times 0, 30 and 60 hours. The plates were statically incubated at 28° C. when not being read. Absorbance values were imported into Microsoft Excel® and analyzed graphically."}, "[6]": {"system": "Salmonella typhimurium", "assay": "Minimum inhibitory concentration (MIC) in broth culture", "type": "cell-based", "conditions": "synthetic compound", "procedure": "as §2"}, "[7]": {"system": "Bacillus subtilis", "assay": "Minimum inhibitory concentration (MIC) in broth culture", "type": "cell-based", "conditions": "synthetic compound", "procedure": "as §2"}, "[8]": {"system": "Streptococcus pyogenes", "assay": "Minimum inhibitory concentration (MIC) in broth culture", "type": "cell-based", "conditions": "synthetic compound", "procedure": "as §2"}, "[9]": {"system": "Staphylococcus aureus", "assay": "Minimum inhibitory concentration (MIC) in broth culture", "type": "cell-based", "procedure": "as §2"}, "[10]": {"system": "Salmonella typhimurium LT2", "assay": "Zone of inhibition assay", "type": "cell-based", "conditions": "10 μl drop of 250 μg/ml in DMSO"}, "[11]": {"system": "Staphylococcus aureus 3001", "assay": "Zone of inhibition assay", "type": "cell-based", "conditions": "10 μl drop of 250 μg/ml in DMSO"}, "[12]": {"system": "Enterococcus faecalis 4025", "assay": "Zone of inhibition assay", "type": "cell-based", "parameters": "key: (+) 2 to 13 mm zone; (+/−) 1 mm zone; (−) no zone of inhibition", "conditions": "10 μl drop of 250 μg/ml in DMSO"}, "[13]": {"system": "Streptococcus pyogenes 8P01", "assay": "Zone of inhibition assay", "type": "cell-based", "conditions": "10 μl drop of 250 μg/ml in DMSO"}, "[14]": {"system": "Erwinia herbicola IRQ", "assay": "Zone of inhibition assay", "type": "cell-based", "conditions": "10 μl drop of 250 μg/ml in DMSO"}, "[15]": {"system": "Pseudomonas aeruginosa 9020", "assay": "Zone of inhibition assay", "type": "cell-based", "parameters": "key: (+) 2 to 13 mm zone; (+/−) 1 mm zone; (−) no zone of inhibition", "conditions": "10 μl drop of 250 μg/ml in DMSO"}, "[16]": {"system": "Candida guilliermondii Y001", "assay": "Zone of inhibition assay", "type": "cell-based", "conditions": "10 μl drop of 250 μg/ml in DMSO"}, "[17]": {"system": "Streptomyces griseus 6501", "assay": "Zone of inhibition assay", "type": "cell-based", "conditions": "10 μl drop of 250 μg/ml in DMSO"}}, "note": "Read-outs that look alike come from different tables or passages of the source. Marks after values point to notes of the source that are not given here.", "data": [{"smiles": "c1ccc2c([C+](c3c[nH]c4ccccc34)c3c[nH]c4ccccc34)c[nH]c2c1", "note": "[Turbomycin A, turbomycin A]", "values": [{"measurement": "Antibiotic activity (zone of inhibition)", "setting": "[1]; Natural compound", "value": "+/− ((+/−) 1 mm zone)"}, {"measurement": "Antibiotic activity (zone of inhibition)", "setting": "[1]; Synthetic compound", "value": "+/−^b ((+/−) 1 mm zone)"}, {"measurement": "Antibiotic activity (zone of inhibition)", "setting": "[2]; Natural compound", "value": "+ ((+) 2 to 13 mm zone)"}, {"measurement": "Antibiotic activity (zone of inhibition)", "setting": "[2]; Synthetic compound", "value": "+ ((+) 2 to 13 mm zone)"}, {"measurement": "Antibiotic activity (zone of inhibition)", "setting": "[3]; Natural compound", "value": "−"}, {"measurement": "Antibiotic activity (zone of inhibition)", "setting": "[3]; Synthetic compound", "value": "−"}, {"measurement": "Antibiotic activity (zone of inhibition)", "setting": "[4]; Natural compound", "value": "−"}, {"measurement": "Antibiotic activity (zone of inhibition)", "setting": "[4]; Synthetic compound", "value": "−"}, {"measurement": "minimum inhibitory concentration (MIC)", "setting": "[5]", "value": 6.2, "unit": "µg/mL"}, {"measurement": "minimum inhibitory concentration (MIC)", "setting": "[6]", "value": 12.5, "unit": "µg/mL"}, {"measurement": "minimum inhibitory concentration (MIC)", "setting": "[7]", "value": 6.2, "unit": "µg/mL"}, {"measurement": "minimum inhibitory concentration (MIC)", "setting": "[8]", "value": 6.2, "unit": "µg/mL"}, {"measurement": "MIC of natural product compared with synthetic compound", "setting": "[9]; natural product, same experiment as synthetic compound, S. aureus", "value": "same MIC"}, {"measurement": "minimum inhibitory concentration (MIC)", "setting": "[9]; synthetic compound, broth culture, Staphylococcus aureus", "value": 6.2, "unit": "µg/mL"}, {"measurement": "Antibiotic activity (zone of inhibition)", "setting": "[10]; Natural compound", "value": "+ ((+) 2 to 13 mm zone)"}, {"measurement": "Antibiotic activity (zone of inhibition)", "setting": "[10]; Synthetic compound", "value": "+ ((+) 2 to 13 mm zone)"}, {"measurement": "Antibiotic activity (zone of inhibition)", "setting": "[11]; Natural compound", "value": "+ ((+) 2 to 13 mm zone)"}, {"measurement": "Antibiotic activity (zone of inhibition)", "setting": "[11]; Synthetic compound", "value": "+ ((+) 2 to 13 mm zone)"}, {"measurement": "Antibiotic activity (zone of inhibition)", "setting": "[12]; Natural compound", "value": "−"}, {"measurement": "Antibiotic activity (zone of inhibition)", "setting": "[12]; Synthetic compound", "value": "−"}, {"measurement": "Antibiotic activity (zone of inhibition)", "setting": "[13]; Natural compound", "value": "+ ((+) 2 to 13 mm zone)"}, {"measurement": "Antibiotic activity (zone of inhibition)", "setting": "[13]; Synthetic compound", "value": "+ ((+) 2 to 13 mm zone)"}, {"measurement": "Antibiotic activity (zone of inhibition)", "setting": "[14]; Natural compound", "value": "+ ((+) 2 to 13 mm zone)"}, {"measurement": "Antibiotic activity (zone of inhibition)", "setting": "[14]; Synthetic compound", "value": "+^a ((+) 2 to 13 mm zone)"}, {"measurement": "Antibiotic activity (zone of inhibition)", "setting": "[15]; Natural compound", "value": "−"}, {"measurement": "Antibiotic activity (zone of inhibition)", "setting": "[15]; Synthetic compound", "value": "−^c"}, {"measurement": "Antibiotic activity (zone of inhibition)", "setting": "[16]; Natural compound", "value": "+/− ((+/−) 1 mm zone)"}, {"measurement": "Antibiotic activity (zone of inhibition)", "setting": "[16]; Synthetic compound", "value": "+/− ((+/−) 1 mm zone)"}, {"measurement": "Antibiotic activity (zone of inhibition)", "setting": "[17]; Natural compound", "value": "+ ((+) 2 to 13 mm zone)"}, {"measurement": "Antibiotic activity (zone of inhibition)", "setting": "[17]; Synthetic compound", "value": "+ ((+) 2 to 13 mm zone)"}]}, {"smiles": "c1ccc([C+](c2c[nH]c3ccccc23)c2c[nH]c3ccccc23)cc1", "note": "[Turbomycin B, turbomycin B]", "values": [{"measurement": "Antibiotic activity (zone of inhibition)", "setting": "[1]; Natural compound", "value": "+/− ((+/−) 1 mm zone)"}, {"measurement": "Antibiotic activity (zone of inhibition)", "setting": "[1]; Synthetic compound", "value": "+/− ((+/−) 1 mm zone)"}, {"measurement": "Antibiotic activity (zone of inhibition)", "setting": "[2]; Natural compound", "value": "+ ((+) 2 to 13 mm zone)"}, {"measurement": "Antibiotic activity (zone of inhibition)", "setting": "[2]; Synthetic compound", "value": "+ ((+) 2 to 13 mm zone)"}, {"measurement": "Antibiotic activity (zone of inhibition)", "setting": "[3]; Natural compound", "value": "−"}, {"measurement": "Antibiotic activity (zone of inhibition)", "setting": "[3]; Synthetic compound", "value": "−"}, {"measurement": "Antibiotic activity (zone of inhibition)", "setting": "[4]; Natural compound", "value": "−"}, {"measurement": "Antibiotic activity (zone of inhibition)", "setting": "[4]; Synthetic compound", "value": "−"}, {"measurement": "Antibiotic activity (zone of inhibition)", "setting": "[10]; Natural compound", "value": "+ ((+) 2 to 13 mm zone)"}, {"measurement": "Antibiotic activity (zone of inhibition)", "setting": "[10]; Synthetic compound", "value": "+ ((+) 2 to 13 mm zone)"}, {"measurement": "Antibiotic activity (zone of inhibition)", "setting": "[11]; Natural compound", "value": "+ ((+) 2 to 13 mm zone)"}, {"measurement": "Antibiotic activity (zone of inhibition)", "setting": "[11]; Synthetic compound", "value": "+ ((+) 2 to 13 mm zone)"}, {"measurement": "Antibiotic activity (zone of inhibition)", "setting": "[12]; Natural compound", "value": "−"}, {"measurement": "Antibiotic activity (zone of inhibition)", "setting": "[12]; Synthetic compound", "value": "−"}, {"measurement": "Antibiotic activity (zone of inhibition)", "setting": "[13]; Natural compound", "value": "+ ((+) 2 to 13 mm zone)"}, {"measurement": "Antibiotic activity (zone of inhibition)", "setting": "[13]; Synthetic compound", "value": "+ ((+) 2 to 13 mm zone)"}, {"measurement": "Antibiotic activity (zone of inhibition)", "setting": "[14]; Natural compound", "value": "+ ((+) 2 to 13 mm zone)"}, {"measurement": "Antibiotic activity (zone of inhibition)", "setting": "[14]; Synthetic compound", "value": "+ ((+) 2 to 13 mm zone)"}, {"measurement": "Antibiotic activity (zone of inhibition)", "setting": "[15]; Natural compound", "value": "−"}, {"measurement": "Antibiotic activity (zone of inhibition)", "setting": "[15]; Synthetic compound", "value": "−"}, {"measurement": "Antibiotic activity (zone of inhibition)", "setting": "[16]; Natural compound", "value": "+/− ((+/−) 1 mm zone)"}, {"measurement": "Antibiotic activity (zone of inhibition)", "setting": "[16]; Synthetic compound", "value": "+/− ((+/−) 1 mm zone)"}, {"measurement": "Antibiotic activity (zone of inhibition)", "setting": "[17]; Natural compound", "value": "+ ((+) 2 to 13 mm zone)"}, {"measurement": "Antibiotic activity (zone of inhibition)", "setting": "[17]; Synthetic compound", "value": "+ ((+) 2 to 13 mm zone)"}]}]}
